Results from doi:10.1101/2025.04.28.650843v1, “The structure of phycobilisome with a bicylindrical core from the cyanobacterium Synechococcus elongatus PCC 7942” (biorxiv, 2025).

Columns and labels:
Assay in all cases: cryo-EM structure of phycobilisome, […] Å
Assay type in all cases: binding
ApcE (LCM), αApcE domain = biological target: T1, ApcE (LCM), αApcE domain (Synechococcus elongatus, UniProt Q31RF9); conditions: covalent, terminal emitter, pH 7.0
T1 construct: gene Synpcc7942_0328; native ApcE with two REP domains in phycobilisome core (trimer 3), glutaraldehyde cross-linked; bilin in N-terminal αApcE domain
T1 sequence (Q31RF9 1-705): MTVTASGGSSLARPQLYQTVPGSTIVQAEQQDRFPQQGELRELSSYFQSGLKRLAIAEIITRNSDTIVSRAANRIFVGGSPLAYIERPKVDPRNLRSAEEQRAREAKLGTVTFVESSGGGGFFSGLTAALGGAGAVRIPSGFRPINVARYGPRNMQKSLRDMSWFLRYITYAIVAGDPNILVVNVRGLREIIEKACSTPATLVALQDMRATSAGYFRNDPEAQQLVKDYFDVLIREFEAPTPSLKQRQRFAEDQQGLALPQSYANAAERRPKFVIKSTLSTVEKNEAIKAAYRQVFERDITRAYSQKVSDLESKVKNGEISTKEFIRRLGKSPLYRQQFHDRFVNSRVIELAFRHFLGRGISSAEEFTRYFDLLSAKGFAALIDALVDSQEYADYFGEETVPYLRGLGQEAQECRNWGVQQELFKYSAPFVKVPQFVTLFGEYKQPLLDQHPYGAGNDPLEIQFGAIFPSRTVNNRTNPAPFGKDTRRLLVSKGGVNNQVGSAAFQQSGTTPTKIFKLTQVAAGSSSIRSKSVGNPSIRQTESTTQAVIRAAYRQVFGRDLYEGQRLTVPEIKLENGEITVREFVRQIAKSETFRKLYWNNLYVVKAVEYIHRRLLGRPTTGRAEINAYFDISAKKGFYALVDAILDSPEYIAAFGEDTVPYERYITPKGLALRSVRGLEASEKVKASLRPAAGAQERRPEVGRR

ApcF = biological target: T2, ApcF (Synechococcus elongatus, UniProt O50209); conditions: covalent; pH 7.0
T2 construct: native subunit in phycobilisome core, glutaraldehyde cross-linked
T2 sequence (O50209 1-169): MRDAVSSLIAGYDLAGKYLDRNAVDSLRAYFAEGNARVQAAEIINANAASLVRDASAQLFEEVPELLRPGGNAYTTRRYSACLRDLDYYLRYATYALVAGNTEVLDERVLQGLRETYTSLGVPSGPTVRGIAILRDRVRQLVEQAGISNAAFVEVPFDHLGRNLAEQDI

ApcD = biological target: T3, ApcD (Synechococcus elongatus, UniProt Q31RP7); conditions: covalent; terminal emitter; pH 7.0
T3 construct: gene Synpcc7942_0240; native subunit in phycobilisome core (trimer 4), glutaraldehyde cross-linked
T3 sequence (Q31RP7 1-163): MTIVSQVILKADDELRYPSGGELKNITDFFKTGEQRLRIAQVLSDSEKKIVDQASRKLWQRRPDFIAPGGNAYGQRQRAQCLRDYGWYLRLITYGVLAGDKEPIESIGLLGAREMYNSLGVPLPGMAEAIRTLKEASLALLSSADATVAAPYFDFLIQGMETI

## C/C=C1/C(=C/C2=NC(=C\c3[nH]c(/C=C4\NC(=O)C(CC)=C4C)c(C)c3CCC(=O)O)/C(CCC(=O)O)=C2C)NC(=O)[C@@H]1C [phycocyanobilin]
ApcE (LCM), αApcE domain
  cryo-EM structure of phycobilisome, 2.98 Å: terminal emitters (ApcD and the α^ApcE domain) are deduced based on the shortest distances
ApcF
  cryo-EM structure of phycobilisome, 2.98 Å: Bilins in rods and core are painted the same colors as the corresponding proteins
ApcD
  cryo-EM structure of phycobilisome, 2.98 Å: terminal emitters (ApcD and the α^ApcE domain) are deduced based on the shortest distances
